{"source": "paper PMC5453931", "about": "“Cathelicidin-trypsin inhibitor loop conjugate represents a promising antibiotic candidate with protease stability” (Scientific Reports, 2017)", "key": {"[1]": {"test_system": "E. coli 08040726", "assay": "Bacterial killing kinetic assay, colony counting", "format": "cell-based", "description": "The bacterial killing kinetics of the hybrid peptides against E. coli 08040726 was determined by counting the changes in the viable bacterial clones after peptide treatment. The experiment was carried out according to the method described previously with minor modifications. Fresh colonies of the bacteria were incubated in MH broth at 37 °C for 12 h and diluted to 10^6 CFU/in fresh MH broth. The hybrid peptide was added to the bacterial suspension with a final concentration of 1x and 5x corresponding MICs, and incubated at 37 °C for 0, 10, 20, 30, 45, 60, 90, 120, and 180 mins. At each time point, aliquots (50 μL) were removed and diluted with fresh MH broth for 1000 times. […] of the dilutions were coated on MH agar plates, incubated overnight at 37 °C, and the viable colonies were counted. Ampicillin was used as positive control and sterile deionized water was used as negative control."}, "[2]": {"test_system": "E. coli 08040726", "assay": "MIC, two-fold broth microdilution (second listing of the strain number)", "format": "cell-based", "conditions": "Gram-negative, MH broth, 37 °C, 18 h, mean of three independent experiments in duplicates", "in_short": "(§1)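 Growth at A595 after 18 h at 37 °C defines the MIC, taken as the minimal peptide concentration giving no microbial growth. Organisms were grown to exponential phase in Mueller-Hinton broth and diluted to 10^6 CFU/mL prior to combining with an equal volume of peptide dilutions.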"}, "[3]": {"test_system": "Vibrio Parahaemolyticus", "assay": "MIC, two-fold broth microdilution", "format": "cell-based", "conditions": "Vibrio parahaemolyticus, 18 h, read-out: MIC Vibrio Parahaemolyticus", "in_short": "as §1"}, "[4]": {"test_system": "Staphylococcus epidermidis", "assay": "MIC, two-fold broth microdilution", "format": "cell-based", "conditions": "Staphylococcus epidermidis, 18 h, read-out: MIC Staphylococcus epidermidis", "in_short": "as §1"}, "[5]": {"test_system": "E. Coli 08032813", "assay": "MIC, two-fold broth microdilution", "format": "cell-based", "conditions": "Escherichia coli, 18 h, read-out: MIC E. Coli 08032813", "in_short": "as §1"}, "[6]": {"test_system": "E. coli 08040726", "format": "cell-based", "conditions": "Gram-negative, two-fold broth microdilution, MH broth, 37 °C, 18 h, mean of three independent experiments in duplicates", "in_short": "as §1"}, "[7]": {"test_system": "08030209", "assay": "microbe, parasite or virus in culture", "format": "cell-based, Arcyria cinerea", "conditions": "Arcyria cinerea, 18 h, read-out: MIC Arcyria cinerea 08030209", "description": "A two-fold broth microdilution method described in our previous paper was used to determine the antimicrobial activities of parental and hybrid peptides. More than 30 strains including Gram-negative bacteria, Gram-positive bacteria and fungi were used in the current assay, in which the standard strains were stored in our lab and the clinical strains were collected from local hospitals. Briefly, bacteria were incubated in Mueller-Hinton broth (MH broth) at 37 °C to exponential phase and diluted to 10^6 CFU/mL. A serial dilution of peptide sample were prepared in 96-well microtiter plates (50 μL) and mixed with equal volume of microbial inoculums (50 μL). The plate was slowly shaken in the microbial incubator, and measured at A595 after incubation at 37 °C for 18 h. The minimal concentrations at which no microbial growth occurred were recorded as MIC (minimal inhibitory concentration) values. The traditional antibiotic ampicillin was used as positive control. The results are shown in an average of the MICs obtained from three independent experiments."}, "[8]": {"test_system": "Nocardia asteroides 08052412", "assay": "microbe, parasite or virus in culture", "format": "cell-based", "conditions": "Nocardia asteroides, 08052412, 18 h, read-out: MIC Nocardia asteroides 08052412", "in_short": "as §1"}, "[9]": {"test_system": "Shigella dysenteriae 0804203", "assay": "microbe, parasite or virus in culture", "format": "cell-based", "conditions": "Shigella dysenteriae, 0804203, 18 h, read-out: MIC Shigella dysenteriae 0804203", "in_short": "as §1"}, "[10]": {"test_system": "S. Aureus 08032615", "assay": "microbe, parasite or virus in culture", "format": "cell-based", "conditions": "Staphylococcus aureus, 18 h, read-out: MIC S. Aureus 08032615", "in_short": "as §1"}, "[11]": {"test_system": "Candida albicans 08030102", "assay": "microbe, parasite or virus in culture", "format": "cell-based", "conditions": "Candida albicans, 08030102, 18 h, read-out: MIC Candida albicans 08030102", "in_short": "as §1"}, "[12]": {"test_system": "Candida glabrata 08A802", "assay": "microbe, parasite or virus in culture", "format": "cell-based", "conditions": "Nakaseomyces glabratus, 08A802, 18 h, read-out: MIC Candida glabrata 08A802", "in_short": "as §1"}, "[13]": {"test_system": "S. Aureus 08032706", "assay": "microbe, parasite or virus in culture", "format": "cell-based", "conditions": "Staphylococcus aureus, 18 h, read-out: MIC S. Aureus 08032706", "in_short": "as §1"}, "[14]": {"test_system": "E. Coli 08032823", "assay": "microbe, parasite or virus in culture", "format": "cell-based", "conditions": "Escherichia coli, 18 h, read-out: MIC E. Coli 08032823", "in_short": "as §1"}, "[15]": {"test_system": "Vibrio harveyi", "assay": "microbe, parasite or virus in culture", "format": "cell-based", "conditions": "Vibrio harveyi, 18 h, read-out: MIC Vibrio harveyi", "in_short": "as §1"}, "[16]": {"test_system": "Edwardsiella tarda", "assay": "microbe, parasite or virus in culture", "format": "cell-based", "conditions": "Edwardsiella tarda, 18 h, read-out: MIC Edwardsiella tarda", "in_short": "as §1"}, "[17]": {"test_system": "S. Maltophilia 090223", "assay": "microbe, parasite or virus in culture", "format": "cell-based", "conditions": "Stenotrophomonas maltophilia, 18 h, read-out: MIC S. Maltophilia 090223", "in_short": "as §1"}, "[18]": {"test_system": "Bacillus subtilis 08042313", "assay": "microbe, parasite or virus in culture", "format": "cell-based", "conditions": "Bacillus subtilis, 08042313, 18 h, read-out: MIC Bacillus subtilis 08042313", "in_short": "as §1"}, "[19]": {"test_system": "Vibrio cholerae", "assay": "microbe, parasite or virus in culture", "format": "cell-based", "conditions": "Vibrio cholerae, 18 h, read-out: MIC Vibrio cholerae"}, "[20]": {"test_system": "Escherichia coli ATCC25922", "assay": "microbe, parasite or virus in culture", "format": "cell-based", "conditions": "Escherichia coli, ATCC25922, 18 h, read-out: MIC Escherichia coli ATCC25922", "in_short": "as §1"}, "[21]": {"test_system": "P. Aeruginosa 08021015", "assay": "microbe, parasite or virus in culture", "format": "cell-based", "conditions": "Pseudomonas aeruginosa, 18 h, read-out: MIC P. Aeruginosa 08021015", "in_short": "as §1"}, "[22]": {"test_system": "Aeromonas veronii", "assay": "microbe, parasite or virus in culture", "format": "cell-based", "conditions": "Aeromonas veronii, 18 h, read-out: MIC Aeromonas veronii", "in_short": "as §1"}, "[23]": {"test_system": "Proteus mirabilis 1376", "assay": "microbe, parasite or virus in culture", "format": "cell-based", "conditions": "Proteus mirabilis, 1376, 18 h, read-out: MIC Proteus mirabilis 1376", "in_short": "as §1"}, "[24]": {"test_system": "K. Pneumoniae 08040202", "assay": "microbe, parasite or virus in culture", "format": "cell-based", "conditions": "Klebsiella pneumoniae, 18 h, read-out: MIC K. Pneumoniae 08040202", "in_short": "as §1"}, "[25]": {"test_system": "K. Pneumoniae 08031012", "assay": "microbe, parasite or virus in culture", "format": "cell-based", "conditions": "Klebsiella pneumoniae, 18 h, read-out: MIC K. Pneumoniae 08031012", "in_short": "as §1"}, "[26]": {"test_system": "Enterococcus faecium 08052315", "assay": "microbe, parasite or virus in culture", "format": "cell-based", "conditions": "Enterococcus faecium, 08052315, 18 h, read-out: MIC Enterococcus faecium 08052315", "in_short": "as §1"}, "[27]": {"test_system": "Aeromonas sobria", "assay": "microbe, parasite or virus in culture", "format": "cell-based", "conditions": "Aeromonas sobria, 18 h, read-out: MIC Aeromonas sobria", "in_short": "as §1"}, "[28]": {"test_system": "Vibrio brasiiensis", "assay": "microbe, parasite or virus in culture", "format": "cell-based", "conditions": "Vibrio, 18 h, read-out: MIC Vibrio brasiiensis", "in_short": "as §1"}, "[29]": {"test_system": "S. Aureus 08032810", "assay": "microbe, parasite or virus in culture", "format": "cell-based", "conditions": "Staphylococcus aureus, 18 h, read-out: MIC S. Aureus 08032810", "in_short": "as §1"}}, "note": "Like-named read-outs stand apart in the source and are kept apart here.", "data": [{"smiles": "CC1(C)S[C@@H]2[C@H](NC(=O)[C@H](N)c3ccccc3)C(=O)N2[C@H]1C(=O)O", "note": "[Ampicillin, reference compound]", "values": [{"measurement": "time of killing toward E. coli", "setting": "[1]; 1xMIC", "result": 6, "unit": "h"}, {"measurement": "time of killing toward E. coli", "setting": "[1]; 5xMIC", "result": 3, "unit": "h"}, {"measurement": "MIC E. Coli 08040726 (second line with this strain number)", "setting": "[2]", "result": "— (no detectable activity in MIC assay in dose of 200 µg/mL or in trypsin inhibition assay at concentration of 160 μg/mL)"}, {"measurement": "MIC", "setting": "[3]", "result": 18.8, "unit": "µg/mL"}, {"measurement": "MIC", "setting": "[4]", "result": "> 200", "unit": "µg/mL"}, {"measurement": "MIC", "setting": "[5]", "result": "> 200", "unit": "µg/mL"}, {"measurement": "MIC E. coli 08040726", "setting": "[6]", "result": 9.38, "unit": "µg/mL"}, {"measurement": "MIC E. coli 08040726", "setting": "[6]; listed as ampicillin", "result": 0.12, "unit": "µg/mL"}, {"measurement": "MIC", "setting": "[7]", "result": "> 200", "unit": "µg/mL"}, {"measurement": "MIC", "setting": "[8]", "result": "> 200", "unit": "µg/mL"}, {"measurement": "MIC", "setting": "[9]", "result": 75, "unit": "µg/mL"}, {"measurement": "MIC", "setting": "[10]", "result": 9.38, "unit": "µg/mL"}, {"measurement": "MIC", "setting": "[11]", "result": 18.8, "unit": "µg/mL"}, {"measurement": "MIC", "setting": "[12]", "result": 18.8, "unit": "µg/mL"}, {"measurement": "MIC", "setting": "[13]", "result": 18.8, "unit": "µg/mL"}, {"measurement": "MIC", "setting": "[14]", "result": "> 200", "unit": "µg/mL"}, {"measurement": "MIC", "setting": "[15]", "result": 37.5, "unit": "µg/mL"}, {"measurement": "MIC", "setting": "[16]", "result": "> 200", "unit": "µg/mL"}, {"measurement": "MIC", "setting": "[17]", "result": "> 200", "unit": "µg/mL"}, {"measurement": "MIC", "setting": "[18]", "result": 75, "unit": "µg/mL"}, {"measurement": "MIC", "setting": "[19]", "result": "> 200", "unit": "µg/mL"}, {"measurement": "MIC", "setting": "[20]", "result": 4.69, "unit": "µg/mL"}, {"measurement": "MIC", "setting": "[21]", "result": 9.38, "unit": "µg/mL"}, {"measurement": "MIC", "setting": "[22]", "result": "> 200", "unit": "µg/mL"}, {"measurement": "MIC", "setting": "[23]", "result": 75, "unit": "µg/mL"}, {"measurement": "MIC", "setting": "[24]", "result": "> 200", "unit": "µg/mL"}, {"measurement": "MIC", "setting": "[25]", "result": "> 200", "unit": "µg/mL"}, {"measurement": "MIC", "setting": "[26]", "result": "> 200", "unit": "µg/mL"}, {"measurement": "MIC", "setting": "[27]", "result": "> 200", "unit": "µg/mL"}, {"measurement": "MIC", "setting": "[28]", "result": "> 200", "unit": "µg/mL"}, {"measurement": "MIC", "setting": "[29]", "result": "> 200", "unit": "µg/mL"}]}]}
